In US20250281483A1, “TRANSCRIPTION FACTOR EB ACTIVATORS AND USES THEREOF” (Astellas Engineered Small Molecules US, Incorporated, priority 2022, published 2025):

Biological target: T1, TFEB (Homo sapiens, UniProt P19484)
T1 sequence (P19484 1-476): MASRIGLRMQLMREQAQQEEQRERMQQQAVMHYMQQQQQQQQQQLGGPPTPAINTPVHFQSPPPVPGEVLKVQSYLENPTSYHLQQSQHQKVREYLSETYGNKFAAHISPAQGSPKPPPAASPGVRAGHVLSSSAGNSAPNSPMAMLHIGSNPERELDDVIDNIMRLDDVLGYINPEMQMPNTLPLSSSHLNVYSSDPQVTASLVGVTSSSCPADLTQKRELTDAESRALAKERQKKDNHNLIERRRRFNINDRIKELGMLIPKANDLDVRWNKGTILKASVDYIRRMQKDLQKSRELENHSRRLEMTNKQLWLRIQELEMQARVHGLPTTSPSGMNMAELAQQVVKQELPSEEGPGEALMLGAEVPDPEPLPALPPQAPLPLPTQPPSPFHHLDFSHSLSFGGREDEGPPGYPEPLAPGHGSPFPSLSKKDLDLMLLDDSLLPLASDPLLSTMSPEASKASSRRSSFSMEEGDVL
Test: Tfeb-Translocation Assay HEK-293T-oEX-Tfeb-GFP Cell Line
Type: cell-based
Conditions: HEK-293T-oEX-TFEB-GFP cells; translocation positive cells ratio; read-out: TFEB Translocation EC50
Procedure: Tfeb-Translocation Assay HEK-293T-oEX-Tfeb-GFP Cell Line
• 1). Added 2×10^6 cell into a T75 flask with 15 mL DiVEM medium (with 10% FBS, 1% PS, 1×GLUTAMAX, 1×MEM NEAA, 1×HEPES Buffer Solution and 5 ug/mL blasticidin). • 2). Culturing for 48-72 hours. Cells in logarithmic growth phase were taken for experiment. The other cells were passaged as described in step 1. • 3). Seeded 1×10^4 cells/30 μL/well into 384-well plate (BD 356663). Cultured overnight at 37° C. & 5% CO2 incubator. • 4). Note: Used cells <10 passage
• 1). Compounds were firstly diluted by DMSO to the stock needed (10 mM), and aliquoted and stored at −20° C. • 2). Took one aliquot each time and made 3-fold or 2-fold dilutions as indicated, total 10 doses plus one DMSO control well in the source plate. • 3). Added 150 or 90 nL/well compounds solution to the assay plate by ECHO and incubated for 6 or 18 hours respectively at 37° C. & 5% CO2 incubator.
• 1). Added 30 uL 8% PFA into the wells and incubated 20 min at room temperature. • 2). Discarded the medium, washed the wells twice with DPBS to eliminate foam and bubbles in the well.
• 1). Diluted Hoechest-333824 in DPBS to get 2 μg/mL solution and added 30 uL/well into assay plate, incubated at room temperature for 20 mins. • 2). Discarded the supernatant, washed the wells twice with DPBS to eliminate foam and bubbles in the well. Then added DPBS 20 uL/well.
3). Scanned Plate by Operetta.
• 1). Reference compound: Torin 1 • 2). Test compounds: C1, C2, C3, C4, C5, C6. • 3). Diluted compounds in 384 LDV-dilution plate according to the dilution plate map • 4). Compounds starting concentration: Torin 1: 300 nM and Test compounds: 50 uM.
• 1). Selected all nucleus by Operetta as ‘All Cells’ • 2). Calculated the EGFP average intensity inside the Nucleus region. • 3). Selected population that the EGFP mean intensity inside the Nucleus region>background as the EGFP-positive cells • 4). Selected the Surrounding region of the nucleus and calculated the EGFP mean intensity of the region • 5). Inside the EGFP-positive cell population, selected the cells with EGFP mean intensity inside the Nucleus region/the EGFP mean intensity inside the surrounding region=1.2 (This ratio could be slightly adjusted from time to time) as the Translocation positive cell. • 6). Outputted the ratio of Translocation positive cell/EGFP-positive cells as the Translocation Positive Ratio. • 7). Each time set the ratio of DMSO group (Control Group) as ˜15% and then normalized the compound group to the DMSO group.

| SMILES | EC50 [µM] |
| --- | --- |
| Cc1nc2ccn(CC3CCCCO3)c(=O)c2cc1C(=O)NCc1ccc(Cl)cc1 (stereo not shown) [Example 26, N-(4-chlorobenzyl)-2-methyl-5-oxo-6-((tetrahydro-2H-pyran-2-yl)methyl)-5,6-dihydro-1,6-naphthyridine-3-carboxamide] | 0.1 to 1 |
| Cc1nc2ccn(CC3CCCO3)c(=O)c2cc1C(=O)NCc1ccc(Cl)cc1 (stereo not shown) [Example 11, N-(4-chlorobenzyl)-2-methyl-5-oxo-6-((tetrahydrofuran-2-yl)methyl)-5,6-dihydro-1,6-naphthyridine-3-carboxamide] | 1 to 10 |
| Cc1nc2ccn(Cc3ccccc3)c(=O)c2cc1C(=O)NCc1cnccn1 [Example 32, 6-benzyl-2-methyl-5-oxo-N-(pyrazin-2-ylmethyl)-5,6-dihydro-1,6-naphthyridine-3-carboxamide] | 0.1 to 1 |
| Cc1nc2ccn(Cc3ccccc3)c(=O)c2cc1C(=O)NCc1cc(F)ccn1 [Example 39, 6-benzyl-N-((4-fluoropyridin-2-yl)methyl)-2-methyl-5-oxo-5,6-dihydro-1,6-naphthyridine-3-carboxamide] | 0.1 to 1 |
| Cc1nc2ccn(C)c(=O)c2cc1C(=O)NCc1ccccn1 [Example 53, 2,6-dimethyl-5-oxo-N-(pyridin-2-ylmethyl)-5,6-dihydro-1,6-naphthyridine-3-carboxamide] | ≥ 10 |
| Cc1nc2ccn(Cc3ccccc3)c(=O)c2cc1C(=O)NCc1cnn(C)c1 [Example 15, 6-benzyl-2-methyl-N-((1-methyl-1H-pyrazol-4-yl)methyl)-5-oxo-5,6-dihydro-1,6-naphthyridine-3-carboxamide] | 0.1 to 1 |
| Cc1nc2ccn(Cc3ccccc3)c(=O)c2cc1C(=O)NCc1ccc(C(F)(F)F)cc1 [Example 25, 6-benzyl-2-methyl-5-oxo-N-(4-(trifluoromethyl)benzyl)-5,6-dihydro-1,6-naphthyridine-3-carboxamide] | ≥ 10 |
| Cc1nc2ccn(Cc3cccc(F)c3)c(=O)c2cc1C(=O)NCc1ccccn1 [Example 55, 6-(3-fluorobenzyl)-2-methyl-5-oxo-N-(pyridin-2-ylmethyl)-5,6-dihydro-1,6-naphthyridine-3-carboxamide] | < 0.1 |
| Cc1nc2ccn(Cc3ccccc3)c(=O)c2cc1C(=O)NCc1ccc2c(c1)OCO2 [Example 69, N-(benzo[d][1,3]dioxol-5-ylmethyl)-6-benzyl-2-methyl-5-oxo-5,6-dihydro-1,6-naphthyridine-3-carboxamide] | < 0.1 |
| Cc1nc2ccn(Cc3ccccc3)c(=O)c2cc1C(=O)NCc1cnn(C)n1 [Example 9, 6-benzyl-2-methyl-N-((2-methyl-2H-1,2,3-triazol-4-yl)methyl)-5-oxo-5,6-dihydro-1,6-naphthyridine-3-carboxamide] | 0.1 to 1 |
| Cc1nc2ccn(Cc3ccccc3)c(=O)c2cc1C(=O)NCc1ccncc1 [Example 12, 6-benzyl-2-methyl-5-oxo-N-(pyridin-4-ylmethyl)-5,6-dihydro-1,6-naphthyridine-3-carboxamide] | 1 to 10 |
| Cc1nc(CNC(=O)c2cc3c(=O)n(Cc4ccc(F)cc4)ccc3nc2C)co1 [Example 78, 6-(4-fluorobenzyl)-2-methyl-N-((2-methyloxazol-4-yl)methyl)-5-oxo-5,6-dihydro-1,6-naphthyridine-3-carboxamide] | < 0.1 |
| Cc1nc2ccn(Cc3ccccc3)c(=O)c2cc1C(=O)NCc1ccc(Cl)cc1 [Example 22, 6-benzyl-N-(4-chlorobenzyl)-2-methyl-5-oxo-5,6-dihydro-1,6-naphthyridine-3-carboxamide] | < 0.1 |
| COCCn1ccc2nc(C)c(C(=O)NCc3ccc(C)o3)cc2c1=O [Example 72, 6-(2-methoxyethyl)-2-methyl-N-((5-methylfuran-2-yl)methyl)-5-oxo-5,6-dihydro-1,6-naphthyridine-3-carboxamide] | 0.1 to 1 |
| Cc1nc(CNC(=O)c2cc3c(=O)n(Cc4ccc(F)c(F)c4)ccc3nc2C)co1 [Example 76, 6-(3,4-difluorobenzyl)-2-methyl-N-((2-methyloxazol-4-yl)methyl)-5-oxo-5,6-dihydro-1,6-naphthyridine-3-carboxamide] | < 0.1 |
| COCCOCCOc1ccc(CNC(=O)c2cc3c(=O)n(Cc4ccc(Cl)cc4)ccc3nc2C)nc1 [Example 77, 6-(4-chlorobenzyl)-N-((5-(2-(2-methoxyethoxy)ethoxy)pyridin-2-yl)methyl)-2-methyl-5-oxo-5,6-dihydro-1,6-naphthyridine-3-carboxamide] | ≥ 10 |
| Cc1nc2ccn(Cc3ccncc3)c(=O)c2cc1C(=O)NCc1ccccn1 [Example 52, 2-methyl-5-oxo-N-(pyridin-2-ylmethyl)-6-(pyridin-4-ylmethyl)-5,6-dihydro-1,6-naphthyridine-3-carboxamide] | ≥ 10 |
| Cc1nc2ccn(Cc3cccnc3)c(=O)c2cc1C(=O)NCc1ccccn1 [Example 58, 2-methyl-5-oxo-N-(pyridin-2-ylmethyl)-6-(pyridin-3-ylmethyl)-5,6-dihydro-1,6-naphthyridine-3-carboxamide] | ≥ 10 |
| COCCn1ccc2nc(C)c(C(=O)NCc3ccc(Cl)cc3)cc2c1=O [Example 20, N-(4-chlorobenzyl)-6-(2-methoxyethyl)-2-methyl-5-oxo-5,6-dihydro-1,6-naphthyridine-3-carboxamide] | 1 to 10 |
| Cc1nc2ccn(Cc3ccccc3)c(=O)c2cc1C(=O)NCc1cn(C)nn1 [Example 8, 6-benzyl-2-methyl-N-((1-methyl-11H-1,2,3-triazol-4-yl)methyl)-5-oxo-5,6-dihydro-1,6-naphthyridine-3-carboxamide] | 1 to 10 |
| Cc1nc2ccn(C(C)c3ccccc3)c(=O)c2cc1C(=O)NCc1ccccn1 (stereo not shown) [Example 37, 2-methyl-5-oxo-6-(1-phenylethyl)-N-(pyridin-2-ylmethyl)-5,6-dihydro-1,6-naphthyridine-3-carboxamide] | 0.1 to 1 |
| Cc1nc2ccn(Cc3ccccc3)c(=O)c2cc1C(=O)NCc1ccc(C(N)=O)cc1 [Example 43, 6-benzyl-N-(4-carbamoylbenzyl)-2-methyl-5-oxo-5,6-dihydro-1,6-naphthyridine-3-carboxamide] | ≥ 10 |
| Cc1nc2ccn(Cc3ccc(F)c(F)c3)c(=O)c2cc1C(=O)NCc1cc(F)c(F)cn1 [Example 62, 6-(3,4-difluorobenzyl)-N-((4,5-difluoropyridin-2-yl)methyl)-2-methyl-5-oxo-5,6-dihydro-1,6-naphthyridine-3-carboxamide] | < 0.1 |
| Cc1nc2ccn(Cc3ccccc3)c(=O)c2cc1C(=O)NCc1ncccn1 [Example 29, 6-benzyl-2-methyl-5-oxo-N-(pyrimidin-2-ylmethyl)-5,6-dihydro-1,6-naphthyridine-3-carboxamide] | ≥ 10 |
| Cc1nc2ccn(Cc3ccccc3)c(=O)c2cc1C(=O)NCc1cccnc1 [Example 23, 6-benzyl-2-methyl-5-oxo-N-(pyridin-3-ylmethyl)-5,6-dihydro-1,6-naphthyridine-3-carboxamide] | 0.1 to 1 |
| Cc1nc2ccn(Cc3ccccc3)c(=O)c2cc1C(=O)NCc1ccccc1F [Example 16, 6-benzyl-N-(2-fluorobenzyl)-2-methyl-5-oxo-5,6-dihydro-1,6-naphthyridine-3-carboxamide] | 0.1 to 1 |
| COCCOCCOc1ccc(Cn2ccc3nc(C)c(C(=O)NCc4ccc(Cl)cn4)cc3c2=O)cc1 [Example 64, N-((5-chloropyridin-2-yl)methyl)-6-(4-(2-(2-methoxyethoxy)ethoxy)benzyl)-2-methyl-5-oxo-5,6-dihydro-1,6-naphthyridine-3-carboxamide] | 1 to 10 |
| Cc1nc2ccn(Cc3ccccc3)c(=O)c2cc1C(=O)NCc1ccc(F)cn1 [Example 35, 6-benzyl-N-((5-fluoropyridin-2-yl)methyl)-2-methyl-5-oxo-5,6-dihydro-1,6-naphthyridine-3-carboxamide] | < 0.1 |
